TGI and GI50 data for eight compounds are collected here from PubChem BioAssay (NCI).

Several values for one entry are separate records, joined by “and”; a condition that tells them apart may be missing. Equal values may be shown once.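 48-hour exposure; five concentrations; linearly interpolated endpoints. GI50 marks 50% less growth. TGI marks complete inhibition of growth.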 *1 amine or outer side, *2 acyl side, *3 side chain or, on linkers, in order; H or OH if unused. Where a SMILES comes first, the peptide text is derived from it. Bridges are numbered along the chain shown (N, C = ends). Roman numbers before positions name the chains, in order. [ ]: non-standard residue; d: D form. Actinocin(9to1) = Cc1c2oc3c(C)ccc(C(=O)[*:1])c3nc-2c(C(=O)[*:2])c(N)c1=O; NMeV = CN[CH](C(=O)O)C(C)C; Sar = CNCC(=O)O

Some test systems named below: NCI/ADR-RES ovarian; SNB-19 CNS; NCI-H226 lung; K-562 leukemia; HCT-116 colon; 786-0 renal; T-47D breast; OVCAR-4 ovarian; KM12 colon; OVCAR-5 ovarian; SW-620 colon; IGROV1 ovarian; MCF7 breast; CAKI-1 renal; HT29 colon; SK-OV-3 ovarian; SF-268 CNS.
Test in all cases: growth of human tumour cells (NCI), 48 h

As to `Cn1cccc1-c1ccc(-c2ccc(CO)[se]2)[se]1`, the TGI was over 81 µM in the assay with NCI/ADR-RES ovarian; over 100 µM in the assay on SNB-19 CNS; 5.89 µM in the assay with NCI-H226 lung; over 100 µM with K-562 leukemia; over 100 µM in the assay with HCT-116 colon; over 100 µM in the assay with 786-0 renal. Moreover, the TGI was over 83.7 µM with T-47D breast; 53.8 µM in the assay with OVCAR-4 ovarian; 50.5 µM in the assay with KM12 colon; over 100 µM with OVCAR-5 ovarian; over 100 µM with SW-620 colon; over 100 µM with IGROV1 ovarian. Also, the TGI is over 40 µM in the assay with MCF7 breast; 44.5 µM with CAKI-1 renal; over 100 µM in the assay with HT29 colon; over 78.3 µM with SK-OV-3 ovarian; over 100 µM in the assay on SF-268 CNS.

As to `CCOC(=O)C1CC(C(=O)c2ccccc2)N2c3ccccc3-c3ccccc3C12` (stereo not drawn), the TGI with NCI/ADR-RES ovarian, with SNB-19 CNS, in the assay on NCI-H226 lung, in the assay with K-562 leukemia, in the assay with HCT-116 colon and in the assay on 786-0 renal was over 100 µM in each case. The TGI in the assay on T-47D breast, in the assay with OVCAR-4 ovarian, in the assay with KM12 colon, with OVCAR-5 ovarian, in the assay with SW-620 colon and with IGROV1 ovarian was over 100 µM in each case. Further, the TGI in the assay on MCF7 breast, in the assay with CAKI-1 renal, in the assay on HT29 colon, in the assay on SK-OV-3 ovarian and in the assay with SF-268 CNS was over 100 µM in each case.

Take `Cc1cc2[nH]c3c(C#N)c(-c4ccccc4)c(N=Nc4ccc(F)cc4)c(=O)n3c2cc1C`: the TGI in the assay on NCI/ADR-RES ovarian, in the assay with SNB-19 CNS, in the assay with NCI-H226 lung, with HCT-116 colon, in the assay on 786-0 renal and with T-47D breast was over 100 µM in each case. In addition, the TGI with OVCAR-4 ovarian, in the assay with OVCAR-5 ovarian, in the assay with SW-620 colon, with MCF7 breast, in the assay with CAKI-1 renal and with SK-OV-3 ovarian was over 100 µM each time. Besides, in the assay on SF-268 CNS, the TGI is over 100 µM.

For the compound `COc1ccc(-n2c(=O)c3[nH]c(=S)[nH]c3n(-c3ccc(OC)cc3)c2=S)cc1`, the TGI in the assay with NCI/ADR-RES ovarian, in the assay with NCI-H226 lung, with K-562 leukemia, with HCT-116 colon, in the assay on 786-0 renal and in the assay with T-47D breast was over 100 µM throughout. For the same compound, the TGI in the assay on OVCAR-4 ovarian, in the assay on KM12 colon, with OVCAR-5 ovarian, in the assay with SW-620 colon, with IGROV1 ovarian and with MCF7 breast was over 100 µM each time. In addition, the TGI in the assay with CAKI-1 renal, with HT29 colon, with SK-OV-3 ovarian and with SF-268 CNS was over 100 µM throughout.

With `C=C(C(=O)O[C@H]1C/C(C)=C/CC/C(CO)=C/[C@H]2C(=O)OC(=C)[C@H]12)C(O)CO` (stereo partly drawn), the TGI in the assay with NCI/ADR-RES ovarian was 48.4 µM; with SNB-19 CNS, 43.3 µM; with NCI-H226 lung, 37.7 µM; with K-562 leukemia it was 14.8 µM; in the assay on HCT-116 colon it was 19.6 µM; with 786-0 renal, 18.4 µM. Moreover, the TGI was found to be 11.8 µM with T-47D breast; 46.9 µM in the assay on OVCAR-4 ovarian; 42.3 µM in the assay on KM12 colon; 33 µM with OVCAR-5 ovarian; 14.4 µM in the assay on SW-620 colon; 39.5 µM in the assay with IGROV1 ovarian. Besides, the TGI in the assay with MCF7 breast amounted to 25.6 µM; in the assay with CAKI-1 renal it was 9.1 µM; in the assay with HT29 colon it was 38.7 µM; with SK-OV-3 ovarian, 35.1 µM; in the assay on SF-268 CNS, 39.6 µM.

As for `CC1=NN(c2cccc(Cl)c2)C2(C1=Cc1ccc(O)cc1)C(Cl)C(=O)N2c1nc2ccccc2s1` (stereo not drawn), the TGI with NCI/ADR-RES ovarian was 59.7 µM; in the assay on NCI-H226 lung it was over 100 µM; in the assay on K-562 leukemia, 72.7 µM; in the assay on HCT-116 colon, 31.3 µM; in the assay with 786-0 renal it was 80.6 µM; in the assay with T-47D breast, 97.8 µM. In addition, the TGI is over 100 µM in the assay with OVCAR-4 ovarian; 65 µM in the assay on KM12 colon; over 100 µM with OVCAR-5 ovarian; 34.8 µM in the assay with SW-620 colon; 65.9 µM with IGROV1 ovarian; 98.4 µM in the assay on MCF7 breast. Further, the TGI in the assay with CAKI-1 renal is 85.6 µM; in the assay on HT29 colon it was 63.3 µM; in the assay with SK-OV-3 ovarian it was 57.4 µM; with SF-268 CNS it was 86 µM.

On to `Cc1c2oc3c(C)ccc(C(=O)NC4C(=O)NC(Cc5ccccc5)C(=O)N5CCCC5C(=O)N(C)CC(=O)N(C)C(C(C)C)C(=O)OC4C)c3nc-2c(C(=O)NC2C(=O)NC(Cc3ccccc3)C(=O)N3CCCC3C(=O)N(C)CC(=O)N(C)C(C(C)C)C(=O)OC2C)c(N)c1=O` (stereo not drawn) (I: TFP[Sar][NMeV] / II: TFP[Sar][NMeV]; ester I:1-I:C, II:1-II:C; linker I:N-II:N via Actinocin(9to1); configuration not given here), for which the GI50 is 0.877 µM in the assay with NCI/ADR-RES ovarian and under 0.001 µM with SNB-19 CNS. Moreover, the TGI in the assay on NCI/ADR-RES ovarian is over 100 µM; with SNB-19 CNS, 1.62 µM; in the assay on NCI-H226 lung, 0.0214 µM and 0.0312 µM; in the assay with K-562 leukemia, 0.00316 µM; in the assay with HCT-116 colon, 0.00736 µM; in the assay with T-47D breast it was 0.0647 µM. Besides, the TGI is 0.383 µM and 0.467 µM in the assay on OVCAR-4 ovarian; 1.05 µM in the assay with KM12 colon; 0.0551 µM in the assay with OVCAR-5 ovarian; 0.0165 µM with IGROV1 ovarian; over 100 µM in the assay with MCF7 breast; 0.21 µM in the assay with CAKI-1 renal. Moreover, the TGI was 0.0108 µM in the assay on HT29 colon; 0.524 µM in the assay with SK-OV-3 ovarian; 0.121 µM and 0.528 µM in the assay with SF-268 CNS.

For `CCc1cccc2c3c([nH]c12)-c1ccccc1NC(=O)C3`, the TGI in the assay with NCI/ADR-RES ovarian, in the assay on SNB-19 CNS, in the assay on NCI-H226 lung, with K-562 leukemia, in the assay with 786-0 renal and in the assay with T-47D breast was over 100 µM in each case. The TGI in the assay with KM12 colon, with OVCAR-5 ovarian, in the assay with SW-620 colon, in the assay on IGROV1 ovarian, with MCF7 breast and in the assay with CAKI-1 renal was over 100 µM each time. For the same compound, the TGI with HT29 colon, with SK-OV-3 ovarian and in the assay with SF-268 CNS was over 100 µM throughout.
